Tests used:
[1] = tested on: Trypanosoma brucei Lister 427 VSG221 with APOL1 G2 recombinant protein; assay: APOL1 G2 trypanosome cell rescue assay (Example B5); assay type: cell-based; conditions: Trypanosoma brucei, 20 h, read-out: APOL1 G2 Trypanosome Rescue EC50, Trypanosoma brucei Lister 427 VSG221 with APOL1 G2 recombinant protein, 20 hours, CellTiter-Glo; geometric mean of at least 2 assay runs; † = single assay run
Method in brief: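 Luminescent ATP read-out (CellTiter-Glo) of trypanosome viability after 20 h at 37° C. Bloodstream T. brucei Lister 427 VSG221, 250/well in modified HMI-9, were exposed to recombinant mature APOL1 (aa 28-398) from a 2 μg/mL addition, plus compound in 11-point 2-fold series.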

[2] = tested on: HEK293 clonal cell line overexpressing APOL1 G1; assay: APOL1 G1 HEK293 cell rescue assay (Example B3); assay type: cell-based; conditions: Homo sapiens, HEK293, HEK293 clonal line overexpressing APOL1 G1; geometric mean of at least 2 runs; † = single run; ¥ = concentration at 50% rescue estimated (no sigmoidal curve)
Method in brief: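 Rescue of cell death caused by APOL1 G1 overexpression was measured in a clonal HEK293 line. Compounds were tested in duplicate on one plate, and EC50s were geometric means across at least two runs on different days. Some values are estimated 50%-rescue concentrations where curve fitting failed.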

Row | SMILES | EC50 [1] [nM] | EC50 [2] [nM]
1 | O=C(c1ccc(OCCN2CCC3(CC2)C(=O)Nc2ccc(Cl)cc23)cc1F)N1CC2(C1)CS(=O)(=O)C2 [Compound 239, 6-[4-(2-{5-chloro-2-oxo-1,2-dihydrospiro[indole-3,4′-piperidin]-1′-yl}ethoxy)-2-fluorobenzoyl]-2λ^6-thia-6-azaspiro[3.3]heptane-2,2-dione] | 14.8 | 191
2 | Cc1n[nH]cc1-c1ccc(OCCN2CCC3(CC2)C(=O)Nc2ccc(Cl)cc23)cc1 [Compound 244, 5-chloro-1′-{2-[4-(5-methyl-1H-pyrazol-4-yl)phenoxy]ethyl}-1,2-dihydrospiro[indole-3,4′-piperidin]-2-one] | 49.3 | 189
3 | CNC(=O)N1CCc2cc(OCCN3CCC4(CC3)C(=O)Nc3ccc(Cl)cc34)ccc2C1 [Compound 245, 6-(2-{5-chloro-2-oxo-1,2-dihydrospiro[indole-3,4′-piperidin]-1′-yl}ethoxy)-N-methyl-1,2,3,4-tetrahydroisoquinoline-2-carboxamide] | 102 | 301
4 | Cn1c(=O)[nH]c2cc(OCCN3CCC4(CC3)C(=O)Nc3ccc(Cl)cc34)cnc21 [Compound 247, 5-chloro-1′-[2-({3-methyl-2-oxo-1H,2H,3H-imidazo[4,5-b]pyridin-6-yl}oxy)ethyl]-1,2-dihydrospiro[indole-3,4′-piperidin]-2-one] | 81 | 270
5 | O=C1Nc2ccc(Cl)cc2C12CCN(CCOc1ccc(S(=O)(=O)C3(CO)CC3)nc1)CC2 [Compound 248, 5-chloro-1′-{2-[(6-{[1-(hydroxymethyl)cyclopropyl]sulfonyl}pyridin-3-yl)oxy]ethyl}-1,2-dihydrospiro[indole-3,4′-piperidin]-2-one] | 37.9 | 219
6 | NC(=O)c1ccc(OCCN2CCC3(CC2)C(=O)Nc2ccc(Cl)cc23)cc1C(F)F [Compound 249, 4-(2-{5-chloro-2-oxo-1,2-dihydrospiro[indole-3,4′-piperidin]-1′-yl}ethoxy)-2-(difluoromethyl)benzamide] | 22.1 | 70.6
7 | N#Cc1ccc2c(c1)C1(CCN(CCOc3ccc(C(N)=O)c(C(F)F)c3)CC1)C(=O)N2 [Compound 250, 4-(2-{5-cyano-2-oxo-1,2-dihydrospiro[indole-3,4′-piperidin]-1′-yl}ethoxy)-2-(difluoromethyl)benzamide] | 194 | 192
8 | CN1C(=O)C2(CCN(CCOc3ccc(C4(S(C)(=O)=O)COC4)cc3)CC2)c2cc(C#N)ccc21 [Compound 251, 1′-{2-[4-(3-methanesulfonyloxetan-3-yl)phenoxy]ethyl}-1-methyl-2-oxo-1,2-dihydrospiro[indole-3,4′-piperidine]-5-carbonitrile] | 240 | ~323
9 | CN(C)C(=O)C1(c2ccc(OCCN3CCC4(CC3)C(=O)Nc3ccc(C#N)cc34)cc2)COC1 [Compound 254, 3-[4-(2-{5-cyano-2-oxo-1,2-dihydrospiro[indole-3,4′-piperidin]-1′-yl}ethoxy)phenyl]-N,N-dimethyloxetane-3-carboxamide] | 252 | 2040
10 | CNC(=O)C1(c2ccc(OCCN3CCC4(CC3)C(=O)Nc3ccc(C#N)cc34)cc2)COC1 [Compound 255, 3-[4-(2-{5-cyano-2-oxo-1,2-dihydrospiro[indole-3,4′-piperidin]-1′-yl}ethoxy)phenyl]-N-methyloxetane-3-carboxamide] | 575 | ~2900
11 | O=C(c1c(F)cc(OCCN2CCC3(CC2)C(=O)Nc2ccc(Cl)cc23)cc1F)N1CCS(=O)(=O)CC1 [Compound 259, 4-[4-(2-{5-chloro-2-oxo-1,2-dihydrospiro[indole-3,4′-piperidin]-1′-yl}ethoxy)-2,6-difluorobenzoyl]-1λ^6-thiomorpholine-1,1-dione] | 25.5 | 92.5
12 | CN1C(=O)C2(CCN(CCOc3cc(F)c(C(=O)N4CCS(=O)(=O)CC4)c(F)c3)CC2)c2cc(C#N)ccc21 [Compound 260, 1′-{2-[4-(1,1-dioxo-1λ^6-thiomorpholine-4-carbonyl)-3,5-difluorophenoxy]ethyl}-1-methyl-2-oxo-1,2-dihydrospiro[indole-3,4′-piperidine]-5-carbonitrile] | 110 | 248
13 | CN1C(=O)C2(CCN(CCOc3ccc(C(=O)N4CCS(=O)(=O)CC4)c(C(F)(F)F)c3)CC2)c2cc(C#N)ccc21 [Compound 261, 1′-{2-[4-(1,1-dioxo-1λ^6-thiomorpholine-4-carbonyl)-3-(trifluoromethyl)phenoxy]ethyl}-1-methyl-2-oxo-1,2-dihydrospiro[indole-3,4′-piperidine]-5-carbonitrile] | 29.6 | 167
14 | CS(=O)(=O)c1ccc(OCCN2CCC3(CC2)C(=O)N(CCO)c2ccc(Cl)cc23)cc1C(F)F [Compound 265, 5-chloro-1′-{2-[3-(difluoromethyl)-4-methanesulfonylphenoxy]ethyl}-1-(2-hydroxyethyl)-1,2-dihydrospiro[indole-3,4′-piperidin]-2-one] | 23.1 | 132
15 | CS(=O)(=O)c1ccc(OCCN2CCC3(CC2)C(=O)N(CCO)c2ccc(C#N)cc23)cc1C(F)F [Compound 266, 1′-{2-[3-(difluoromethyl)-4-methanesulfonylphenoxy]ethyl}-1-(2-hydroxyethyl)-2-oxo-1,2-dihydrospiro[indole-3,4′-piperidine]-5-carbonitrile] | 77.1 | 353
16 | O=C(c1ccc(OCCN2CCC3(CC2)C(=O)Nc2ccc(Cl)cc23)cc1C(F)(F)F)N1CCS(=O)(=O)CC1 [Compound 272, 4-[4-(2-{5-chloro-2-oxo-1,2-dihydrospiro[indole-3,4′-piperidin]-1′-yl}ethoxy)-2-(trifluoromethyl)benzoyl]-1λ^6-thiomorpholine-1,1-dione] | 18.9 | 148
17 | CS(=O)(=O)N1CC2(CN(C(=O)c3ccc(OCCN4CCC5(CC4)C(=O)Nc4ccc(Cl)cc45)cc3F)C2)C1 [Compound 273, 5-chloro-1′-[2-(3-fluoro-4-{6-methanesulfonyl-2,6-diazaspiro[3.3]heptane-2-carbonyl}phenoxy)ethyl]-1,2-dihydrospiro[indole-3,4′-piperidin]-2-one] | 25.8 | 206
18 | C[C@]1(O)C[C@@H](N2C(=O)CCc3cc(OCCN4CCC5(CC4)C(=O)Nc4ccc(C(F)F)cc45)cnc32)C1 [Compound 274, 5-(difluoromethyl)-1′-[2-({7-oxo-8-[(cis)-3-hydroxy-3-methylcyclobutyl]-5,6,7,8-tetrahydro-1,8-naphthyridin-3-yl}oxy)ethyl]-1,2-dihydrospiro[indole-3,4′-piperidin]-2-one] | 17.2 | 99.9
19 | C[C@]1(O)C[C@@H](N2C(=O)CCc3cc(OCCN4CCC5(CC4)C(=O)Nc4ccc(Cl)cc45)cnc32)C1 [Compound 275, 5-chloro-1′-[2-({7-oxo-8-[(cis)-3-hydroxy-3-methylcyclobutyl]-5,6,7,8-tetrahydro-1,8-naphthyridin-3-yl}oxy)ethyl]-1,2-dihydrospiro[indole-3,4′-piperidin]-2-one] | 21.4 | 62.7
20 | CS(=O)(=O)C1(c2ncc(OCCN3CCC4(CC3)C(=O)Nc3ccc(Cl)cc34)cn2)COC1 [Compound 276, 5-chloro-1′-(2-{[2-(3-methanesulfonyloxetan-3-yl)pyrimidin-5-yl]oxy}ethyl)-1,2-dihydrospiro[indole-3,4′-piperidin]-2-one] | 55 | 228
21 | CS(=O)(=O)C1(c2ncc(OCCN3CCC4(CC3)C(=O)Nc3ccc(C#N)cc34)cc2F)CC1 [Compound 283, 1′-(2-{[5-fluoro-6-(1-methanesulfonylcyclopropyl)pyridin-3-yl]oxy}ethyl)-2-oxo-1,2-dihydrospiro[indole-3,4′-piperidine]-5-carbonitrile] | 71.1 | 211
22 | CC(O)c1ncc(OCCN2CCC3(CC2)C(=O)Nc2ccc(Cl)cc23)cn1 (centres unmarked) [Compound 284, 5-chloro-1′-(2-{[2-(1-hydroxyethyl)pyrimidin-5-yl]oxy}ethyl)-1,2-dihydrospiro[indole-3,4′-piperidin]-2-one] | 235 | 775
23 | C[C@]1(O)C[C@@H](N2C(=O)OCc3cc(OCCN4CCC5(CC4)C(=O)Nc4ccc(Cl)cc45)cnc32)C1 [Compound 289, 5-chloro-1′-[2-({2-oxo-1-[(cis)-3-hydroxy-3-methylcyclobutyl]-1H,2H,4H-pyrido[2,3-d][1,3]oxazin-6-yl]oxy)ethyl]-1,2-dihydrospiro[indole-3,4′-piperidin]-2-one] | 15.7 | 50.6
24 | CC1(O)CN(c2ncc(OCCN3CCC4(CC3)C(=O)Nc3ccc(Cl)cc34)cn2)C1 [Compound 300, 5-chloro-1′-(2-{[2-(3-hydroxy-3-methylazetidin-1-yl)pyrimidin-5-yl]oxy}ethyl)-1,2-dihydrospiro[indole-3,4′-piperidin]-2-one] | 160 | 183
25 | O=C1Nc2ccc(Cl)cc2C12CCN(CCOc1cnc(N3CC(O)C3)nc1)CC2 [Compound 301, 5-chloro-1′-(2-{[2-(3-hydroxyazetidin-1-yl)pyrimidin-5-yl]oxy}ethyl)-1,2-dihydrospiro[indole-3,4′-piperidin]-2-one] | 134 | 190
